Reference: patent US8492372B2, “Modulators of dopamine neurotransmission” (Integrated Research Laboratories Sweden AB, priority 2008, dated 2013)
Structures can show the parent of a compound that is named as a salt.

Key:
[1] = test system: amphetamine-induced hyper-locomotion; test: Reduction of amphetamine-induced hyper-locomotion (in vivo behaviour); conditions: range in brackets covers 95% of fits; for ED50: Rattus norvegicus, read-out: ED50 reduction of amphetamine-induced hyper-locomotion, rats pre-treated with d-amphetamine 1.5 mg/kg i.p., test compound s.c., curve fit
[2] = test system: DOPAC (3,4-dihydroxyphenylacetic acid) in the rat striatum; test: Increase of DOPAC in the rat striatum after systemic administration (in vivo neurochemistry); conditions: estimated ED50 on increase of DOPAC in rat striatum, curve fit, range in brackets covers 95% of fits; for ED50 DOPAC: s.c.; for ED50: Rattus norvegicus, sc
Description: After the behavioural activity sessions, the rats are decapitated and their brains rapidly taken out and put on an ice-cold petri-dish. The limbic forebrain, the striatum, the frontal cortex and the remaining hemispheral parts of each rat are dissected and frozen. Each brain part is subsequently analyzed with respect to its content of monoamines and their metabolites.
The monoamine transmitter substances (NA (noradrenaline), DA (dopamine), 5-HT (serotonin)) as well as their amine (NM (normethanephrine), 3-MT (3-methoxytyramine)) and acid (DOPAC (3,4-dihydroxyphenylacetic acid), 5-HIAA (5-hydroxyindoleacetic acid), HVA (homovanillic acid)) metabolites are quantified in brain tissue homogenates by HPLC separations and electrochemical detection.
The analytical method is based on two chromatographic separations dedicated for amines or acids. Two chromatographic systems share a common auto injector with a 10-port valve and two sample loops for simultaneous injection on the two systems. Both systems are equipped with a reverse phase column (Luna C18(2), dp 3 μm, 50*2 mm i.d., Phenomenex) and electrochemical detection is accomplished at two potentials on glassy carbon electrodes (MF-1000, Bioanalytical Systems, Inc.). The column effluent is passed via a T-connection to the detection cell or to a waste outlet. This is accomplished by two solenoid valves, which block either the waste or detector outlet. By preventing the chromatographic front from reaching the detector, better detection conditions are achieved. The aqueous mobile phase (0.4 ml/min) for the acid system contains citric acid 14 mM, sodium citrate 10 mM, MeOH 15% (v/v) and EDTA 0.1 mM. Detection potentials relative to Ag/AgCl reference are 0.45 and 0.60V. The aqueous ion pairing mobile phase (0.5 ml/min) for the amine system contains citric acid 5 mM, sodium citrate 10 mM, MeOH 9% (v/v), MeCN 10.5% v/v), decane sulfonic acid 0.45 mM, and EDTA 0.1 mM. Detection potentials relative to Ag/AgCl reference are 0.45 and 0.65V.
ED50 values for the increase of DOPAC in striatum are calculated by curve fitting.

[3] = test system: Locomotor activity in drug-naive rats; test: Locomotor activity in drug-naive rats (in vivo behaviour); set-up: species or system rat; conditions: recorded for 60 minutes immediately after drug administration
Description: Photobeam sensors are spaced 2.5 cm apart.

Row | melting point [°C] | SMILES | ED50 [1] [µmol/kg] | ED50 DOPAC [2] | Locomotor activity ([3]; 3.7 μmol/kg) | Locomotor activity ([3]; 11 μmol/kg) | Locomotor activity ([3]; 33 μmol/kg) | ED50 reduction of amphetamine-induced hyper-locomotion ([1]; rats pre-treated with d-amphetamine 1.5 mg/kg i.p., test compound s.c., curve fit) | ED50 [2] [µmol/kg]
1 | 184 | O=S(=O)(c1ccc2c(c1)OC(CN1CCCC1)OC2)C(F)(F)F (centres unmarked) (as salt: fumaric acid salt) [Example 7, 1-({7-[(TRIFLUOROMETHYL)SULFONYL]-4H-1,3-BENZODIOXIN-2-YL}METHYL)PYRROLIDINE] | – | – | – | – | – | – | –
2 | 169 | CCNCC1OCc2ccc(S(=O)(=O)C(F)(F)F)cc2O1 (centres unmarked) (as salt: hydrochloric acid salt) | – | – | – | – | – | – | –
3 | 203 | CCCNCC1OCc2ccc(C(F)(F)F)cc2O1 (centres unmarked) (as salt: hydrochloric acid salt) [Example 1, N-{[7-(TRIFLUOROMETHYL)-4H-1,3-BENZODIOXIN-2-YL]METHYL}PROPAN-1-AMIN] | – | – | – | – | – | – | –
4 | 213 | CCCNCC1OCc2ccc(S(C)(=O)=O)cc2O1 (centres unmarked) (as salt: hydrochloric acid salt) [Example 3, N-{[7-(METHYLSULFONYL)-4H-1,3-BENZODIOXIN-2-YL]METHYL}PROPAN-1-AMINE] | – | – | – | – | – | – | –
5 | 201 | CCCNCC1OCc2ccc(S(=O)(=O)C(F)(F)F)cc2O1 (centres unmarked) (as salt: hydrochloric acid salt) [Example 8, N-({7-[(TRIFLUOROMETHYL)SULFONYL]-4H-1,3-BENZODIOXIN-2-YL}METHYL)PROPAN-1-AMINE] | – | – | – | – | – | – | –
6 | 225 | CNCC1OCc2ccc(S(C)(=O)=O)cc2O1 (centres unmarked) (as salt: hydrochloric acid salt) [Example 12, N-METHYL-1-[7-(METHYLSULFONYL)-4H-1,3-BENZODIOXIN-2-YL]METHANAMINE] | – | – | – | – | – | – | –
7 | 182 | CCCNCC1OCc2cc(F)c(Br)cc2O1 (centres unmarked) (as salt: hydrochloric acid salt) [Example 19, N-[(7-BROMO-6-FLUORO-4H-1,3-BENZODIOXIN-2-YL)METHYL]PROPAN-1-AMINE] | – | – | – | – | – | – | –
8 | 215 | CCCNCC1OCc2c(F)cc(Br)cc2O1 (centres unmarked) (as salt: oxalic acid salt) [Example 16, N-[(7-BROMO-5-FLUORO-4H-1,3-BENZODIOXIN-2-YL)METHYL]PROPAN-1-AMINE] | – | – | – | – | – | – | –
9 | – | CCCNCC1OCc2ccc(S(C)(=O)=O)cc2O1 (single isomer, unassigned; (+)) [Example 5, (+)-N-{[7-(METHYLSULFONYL)-4H-1,3-BENZODIOXIN-2-YL]METHYL}PROPAN-1-AMINE] | 15 | 12 (9.3-14) μmol/kg | 9173 ± 3160 counts/60 min ± SEM | 8274 ± 801 counts/60 min ± SEM | 4854 ± 771 counts/60 min ± SEM | – | –
10 | – | CCCNCC1OCc2ccc(S(C)(=O)=O)cc2O1 (single isomer, unassigned; (-)) [Example 4, (−)-N-{[7-(METHYLSULFONYL)-4H-1,3-BENZODIOXIN-2-YL]METHYL}PROPAN-1-AMINE] | – | 27 (23-31) μmol/kg | 9158 ± 2094 counts/60 min ± SEM | 11153 ± 1257 counts/60 min ± SEM | 12588 ± 331 counts/60 min ± SEM | 27 (19-35) μmol/kg | –
11 | – | CCCNCC1OCc2ccc(C(F)(F)F)cc2O1 (centres unmarked) [Example 1, N-{[7-(TRIFLUOROMETHYL)-4H-1,3-BENZODIOXIN-2-YL]METHYL}PROPAN-1-AMIN] | 3.9 | – | 8038 ± 1487 counts/60 min ± SEM | 7279 ± 968 counts/60 min ± SEM | 2682 ± 802 counts/60 min ± SEM | – | 17
12 | – | O=S(=O)(c1ccc2c(c1)OC(CN1CCCC1)OC2)C(F)(F)F (centres unmarked) [Example 7, 1-({7-[(TRIFLUOROMETHYL)SULFONYL]-4H-1,3-BENZODIOXIN-2-YL}METHYL)PYRROLIDINE] | 50 | – | 9548 ± 1455 counts/60 min ± SEM | 7270 ± 278 counts/60 min ± SEM | 11818 ± 2775 counts/60 min ± SEM | – | 48
13 | – | CCCNCC1OCc2ccc(S(=O)(=O)C(F)(F)F)cc2O1 (centres unmarked) [Example 8, N-({7-[(TRIFLUOROMETHYL)SULFONYL]-4H-1,3-BENZODIOXIN-2-YL}METHYL)PROPAN-1-AMINE] | 4.9 | – | 11601 ± 583 counts/60 min ± SEM | 7064 ± 1032 counts/60 min ± SEM | 2641 ± 757 counts/60 min ± SEM | – | 7
14 | – | CCCNCC1OCc2c(F)cc(Br)cc2O1 (centres unmarked) [Example 16, N-[(7-BROMO-5-FLUORO-4H-1,3-BENZODIOXIN-2-YL)METHYL]PROPAN-1-AMINE] | – | – | 8637 ± 1217 counts/60 min ± SEM | 7537 ± 2127 counts/60 min ± SEM | 7393 ± 1395 counts/60 min ± SEM | – | 20
15 | – | CCCNCC1OCc2c(F)cc(S(C)(=O)=O)cc2O1 (centres unmarked) [Example 17, N-{[5-FLUORO-7-(METHYLSULFONYL)-4H-1,3-BENZODIOXIN-2-YL]METHYL}PROPAN-1-AMINE] | – | – | 10520 ± 1381 counts/60 min ± SEM | 8330 ± 2194 counts/60 min ± SEM | 3319 ± 140 counts/60 min ± SEM | – | 8.6
16 | – | CCCNCC1OCc2cc(F)c(S(C)(=O)=O)cc2O1 (centres unmarked) [Example 20, N-{[6-FLUORO-7-(METHYLSULFONYL)-4H-1,3-BENZODIOXIN-2-YL]METHYL}PROPAN-1-AMINE] | – | – | 8830 ± 1277 counts/60 min ± SEM | 10181 ± 1385 counts/60 min ± SEM | 5502 ± 474 counts/60 min ± SEM | – | 11
17 | – | CS(=O)(=O)c1ccc2c(c1)OC(CN1CCCCC1)OC2 (centres unmarked) [Example 21, 1-{[7-(METHYLSULFONYL)-4H-1,3-BENZODIOXIN-2-YL]METHYL}PIPERIDINE] | 14 | – | 8285 ± 721 counts/60 min ± SEM | 6585 ± 707 counts/60 min ± SEM | 4197 ± 923 counts/60 min ± SEM | – | 13
